According to US7084148B2, “Substituted pyrimidines as selective cyclooxygenase-2 inhibitors” (SmithKline Beecham Corporation, priority 2000, dated 2006):

How the values were obtained:
[1] = target: T1, human COX-2 (Homo sapiens, UniProt P35354); assay: Inhibition of PGE2 release in COS cells stably transfected with human COX-2; format: cell-based; conditions: 30 μM arachidonic acid
T1 construct: expressed in transfected cells
T1 sequence (P35354 18-604): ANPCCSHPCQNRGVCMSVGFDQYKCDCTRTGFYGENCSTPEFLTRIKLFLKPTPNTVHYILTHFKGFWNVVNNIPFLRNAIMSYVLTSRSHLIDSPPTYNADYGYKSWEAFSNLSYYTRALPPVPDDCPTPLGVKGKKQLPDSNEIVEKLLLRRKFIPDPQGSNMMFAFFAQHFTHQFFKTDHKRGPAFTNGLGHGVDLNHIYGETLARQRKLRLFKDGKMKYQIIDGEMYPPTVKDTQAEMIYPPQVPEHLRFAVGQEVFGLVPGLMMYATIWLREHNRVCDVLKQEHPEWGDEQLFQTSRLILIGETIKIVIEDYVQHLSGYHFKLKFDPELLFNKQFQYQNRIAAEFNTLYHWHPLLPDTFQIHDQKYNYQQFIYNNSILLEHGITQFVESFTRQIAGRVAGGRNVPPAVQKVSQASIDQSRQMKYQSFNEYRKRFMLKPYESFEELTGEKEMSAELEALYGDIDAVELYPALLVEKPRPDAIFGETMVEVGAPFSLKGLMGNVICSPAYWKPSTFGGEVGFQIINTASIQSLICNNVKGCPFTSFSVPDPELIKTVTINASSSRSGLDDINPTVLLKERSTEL
Protocol: (§1) Inhibitory activity against human COX-1 and COX-2 was assessed in COS cells which had been stably transfected with cDNA for human COX-1 and human COX-2. 24 Hours prior to experiment, COS cells were transferred from the 175 cm^2 flasks in which they were grown, onto 24-well cell culture plates using the following procedure. The incubation medium (Dulbecco's modified eagles medium (DMEM) supplemented with heat-inactivated foetal calf serum (10% v/v), penicillin (100 IU/ml), streptomycin (100 μg/ml) and geneticin (600 μg/ml)) was removed from a flask of confluent cells (1 flask at confluency contains approximately 1×10^7 cells). 5 ml of phosphate buffered saline (PBS) was added to the flask to wash the cells. Having discarded the PBS, cells were then incubated with 5 ml trypsin for 5 minutes in an incubator […]. The flask was then removed from the incubator and 5 ml of fresh incubation medium was added. The contents of the flask was transferred to a 250 ml sterile container and the volume of incubation medium subsequently made up to 100 ml. 1 ml cell suspension was pipetted into each well of 4×24-well cell culture plates. The plates were then placed in an incubator (37° C., 95% air/5% CO2) overnight. If more than 1 flask of cells were required, the cells from the individual flasks were combined before being dispensed into the 24-well plates.
Following the overnight incubation, the incubation medium was completely removed from the 24-well cell culture plates and replaced with 250 μl fresh DMEM (37° C.). The test compounds were made up to 250× the required test concentration in DMSO and were added to the wells in a volume of 1 μl. Plates were then mixed gently by swirling and then placed in an incubator for 1 hour (37° C., 95% air/5% CO2). […] Plates were then incubated for a further 10 minutes, after which the incubation medium was removed from each well of the plates and stored at −20° C., prior to determination of prostaglandin E2 (PGE2) levels using enzyme immunoassay. […] The selectivity ratio of inhibition of COX-1 versus COX-2 was calculated by comparing respective IC50 values.

[2] = target: T2, human COX-1 (Homo sapiens, UniProt P23219); assay: Inhibition of PGE2 release in COS cells stably transfected with human COX-1; format: cell-based; conditions: 30 μM arachidonic acid
T2 construct: expressed in transfected cells
Protocol: as §1
Following the overnight incubation, the incubation medium was completely removed from the 24-well cell culture plates and replaced with 250 μl fresh DMEM (37° C.). The test compounds were made up to 250× the required test concentration in DMSO and were added to the wells in a volume of 1 μl. Plates were then mixed gently by swirling and then placed in an incubator for 1 hour (37° C., 95% air/5% CO2). Following the incubation period, 10 μl of arachidonic acid (750 μM) was added to each well to give a final arachidonic acid concentration of 30 μM. Plates were then incubated for a further 10 minutes, after which the incubation medium was removed from each well of the plates and stored at −20° C., prior to determination of prostaglandin E2 (PGE2) levels using enzyme immunoassay. The inhibitory potency of the test compound was expressed as an IC50 value, which is defined as the concentration of the compound required to inhibit the PGE2 release from the cells by 50%. The selectivity ratio of inhibition of COX-1 versus COX-2 was calculated by comparing respective IC50 values.

T2 sequence (P23219 24-599): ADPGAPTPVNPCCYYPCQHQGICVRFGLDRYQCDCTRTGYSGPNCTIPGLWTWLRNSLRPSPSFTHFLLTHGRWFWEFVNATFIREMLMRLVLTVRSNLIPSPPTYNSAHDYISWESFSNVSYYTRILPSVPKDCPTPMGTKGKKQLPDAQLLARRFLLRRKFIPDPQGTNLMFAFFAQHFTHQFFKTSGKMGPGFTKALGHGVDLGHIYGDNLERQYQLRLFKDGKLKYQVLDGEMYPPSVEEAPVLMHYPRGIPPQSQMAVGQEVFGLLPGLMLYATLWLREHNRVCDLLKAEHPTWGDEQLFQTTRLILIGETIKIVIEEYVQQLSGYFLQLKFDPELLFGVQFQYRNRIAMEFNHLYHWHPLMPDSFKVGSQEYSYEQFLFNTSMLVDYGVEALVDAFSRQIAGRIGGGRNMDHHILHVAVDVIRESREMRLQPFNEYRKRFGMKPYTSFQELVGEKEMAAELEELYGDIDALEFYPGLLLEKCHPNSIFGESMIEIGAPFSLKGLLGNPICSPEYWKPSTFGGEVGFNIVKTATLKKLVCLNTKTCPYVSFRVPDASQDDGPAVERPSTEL

IC50 [1] [nM] | IC50 [2] [nM] | SMILES
18 | > 91000 | CS(=O)(=O)c1ccc(-c2cc(C(F)(F)F)nc(NC3CCOCC3)n2)cc1 [Example 1, 4-[4-(methylsulfonyl)phenyl]-N-tetrahydro-2H-pyran-4-yl-6-(trifluoromethyl)pyrimidin-2-amine]
16.8 | 60400 | CN(c1nc(-c2ccc(S(C)(=O)=O)cc2)cc(C(F)(F)F)n1)C1CCOCC1 [Example 2, 4-[4-(Methylsulfonyl)phenyl]-N-methyl-N-tetrahydro-2H-pyran-4-yl-6-(trifluoromethyl)pyrimidin-2-amine]
24.9 | 69700 | CCN(c1nc(-c2ccc(S(C)(=O)=O)cc2)cc(C(F)(F)F)n1)C1CCOCC1 [Example 3, 4-[4-(Methylsulfonyl)phenyl]-N-ethyl-N-tetrahydro-2H-pyran-4-yl-6-(trifluoromethyl)pyrimidin-2-amine]
143 | 71800 | CCCCN(c1nc(-c2ccc(S(C)(=O)=O)cc2)cc(C(F)(F)F)n1)C1CCOCC1 [Example 4, 4-[4-(Methylsulfonyl)phenyl]-N-butyl-N-tetrahydro-2H-pyran-4-yl-6-(trifluoromethyl)pyrimidin-2-amine]
